Test results published in patent US20240358692A1, “TREATMENT OF SCLERODERMA” (Aisa Pharma, Inc., priority 2023, published 2024).

Assays:
participants with SSc-RP [1] = experiment: Frequency of weekly RP attacks (all attacks; primary endpoint), patient diary; format: in vivo, human; settings: ITT Part A
Source text: Percent change from baseline evaluation for frequency of weekly RP attacks were or will be used as the primary efficacy variable. The sponsor-developed participant-informed diary will be used to record data. Frequency of weekly RP attacks is defined as the total number of RP attacks divided by the number of days with available diary data within the last 7 days of each dosing period then multiplied by 7. Total number of RP attacks during the last 7 days of screening period divided by the number of days with available data then multiplied by 7 will be used as baseline for the analysis of all periods. The variable will be calculated as follows: […]
Percent change from baseline evaluation for frequency of weekly RP attacks was and will be the primary efficacy endpoint. Frequency of weekly RP attacks is defined as the total number of RP attacks divided by the number of days with available diary data within the last 7 days of each dosing period then multiplied by 7. Total number of RP attacks during the last 7 days of screening period divided by the number of days with available data then multiplied by 7 will be used as baseline for the analysis of all periods.

participants with SSc-RP [2] = experiment: SHAQ - Alternative Disability Index; format: in vivo, human
Source text: The SHAQ is used to calculate a Disability Index to assess the participant qualify of life. The eight categories assessed by the Disability Index are 1) dressing and grooming, 2) arising, 3) eating, 4) walking, 5) hygiene, 6) reach, 7) grip, and 8) common daily activities. For each of these categories, patients report the amount of difficulty they have in performing two or three specific activities.
There are four possible responses for the Disability Index questions: • Without any difficulty=0 • With some difficulty=1 • With much difficulty=2 • Unable to do=3 • The highest score reported by the patient for any component question of the eight categories determines the score for that category. • If a component question is left blank or the response is too ambiguous to assign a score, then the score for that category is determined by the remaining completed question(s). • If all component questions are blank or if more than one answer is given, then follow up with the respondent is required. • If the respondent's mark is between the response columns, then move it to the closest one. If it's directly between the two, move it to the higher one.
The aid and device variables are not used to calculate the alternative disability index; it is calculated by adding the scores for each of the categories and dividing by the number of categories answered. This gives a score in the 0 to 3 range.

[3] = Tadalafil 5 mg, Baseline RCS stratum 2 (lower half of table)
[4] = tadalafil 5 mg daily, n=1, excluding outliers, last 7 days of dosing
[5] = tadalafil 5 mg daily, n=2, last 7 days of dosing
[6] = Modified ITT Population-Part A, Day 12, dose cilnidipine 10 mg, tadalafil 5 mg, alone or combined as labelled
[7] = Modified ITT Population-Part A, dose cilnidipine 10 mg, tadalafil 5 mg, alone or combined as labelled
[8] = Tadalafil 5 mg, SSc patients, PP, Part A

CN1CC(=O)N2[C@H](c3ccc4c(c3)OCO4)c3[nH]c4ccccc4c3C[C@@H]2C1=O [Tadalafil]
Weekly RP Attacks (All Attacks) Change from Baseline, Mean (participants with SSc-RP [1]; [3]): 3.00 | Weekly RP Attacks (All Attacks) Change from Baseline, Median (participants with SSc-RP [1]; [3]): 3.00 | Weekly RP Attacks (All Attacks), Mean (participants with SSc-RP [1]; [3]): 13.00 | Weekly RP Attacks (All Attacks), Median (participants with SSc-RP [1]; [3]): 13.00 | Weekly RP Attacks (All Attacks) Change from Baseline, Mean (participants with SSc-RP [1]; [4]): 6.00 | Weekly RP Attacks (All Attacks) Change from Baseline, Median (participants with SSc-RP [1]; [4]): 6.00 | Weekly RP Attacks (All Attacks), Mean (participants with SSc-RP [1]; [4]): 19.00 | Weekly RP Attacks (All Attacks), Median (participants with SSc-RP [1]; [4]): 19.00 | Weekly RP Attacks (All Attacks) Change from Baseline, Mean (participants with SSc-RP [1]; [5]): 3.00 | Weekly RP Attacks (All Attacks) Change from Baseline, Median (participants with SSc-RP [1]; [5]): 3.00 | Weekly RP Attacks (All Attacks), Mean (participants with SSc-RP [1]; [5]): 13.00 | Weekly RP Attacks (All Attacks), Median (participants with SSc-RP [1]; [5]): 13.00 | alternative disability index, Change from Baseline, Mean (participants with SSc-RP [2]; [6]): −0.094 | alternative disability index, Change from Baseline, Median (participants with SSc-RP [2]; [6]): −0.125 | alternative disability index, Percent Change from Baseline, Mean (participants with SSc-RP [2]; [6]): −43.70% | alternative disability index, Percent Change from Baseline, Median (participants with SSc-RP [2]; [6]): −20.00% | alternative disability index, In Clinic Visit (Day 12), Mean (participants with SSc-RP [2]; [7]): 0.375 | alternative disability index, In Clinic Visit (Day 12), Median (participants with SSc-RP [2]; [7]): 0.250 | SHAQ Alternative Disability Index, Change from Baseline, Max (participants with SSc-RP [2]; [8]): 0.00 | SHAQ Alternative Disability Index, Change from Baseline, Mean (participants with SSc-RP [2]; [8]): −0.094 | SHAQ Alternative Disability Index, Change from Baseline, Median (participants with SSc-RP [2]; [8]): −0.125 | SHAQ Alternative Disability Index, Change from Baseline, Min (participants with SSc-RP [2]; [8]): −0.13, | SHAQ Alternative Disability Index, Change from Baseline, Q3 (participants with SSc-RP [2]; [8]): −0.063 | SHAQ Alternative Disability Index, Day 12, Max (participants with SSc-RP [2]; [8]): 1.00 | SHAQ Alternative Disability Index, Day 12, Mean (participants with SSc-RP [2]; [8]): 0.375 | SHAQ Alternative Disability Index, Day 12, Median (participants with SSc-RP [2]; [8]): 0.250 | SHAQ Alternative Disability Index, Day 12, Min (participants with SSc-RP [2]; [8]): 0.00, | SHAQ Alternative Disability Index, Day 12, Q1 (participants with SSc-RP [2]; [8]): 0.000, | SHAQ Alternative Disability Index, Day 12, Q3 (participants with SSc-RP [2]; [8]): 0.750 | SHAQ Alternative Disability Index, Percent Change from Baseline, Max (participants with SSc-RP [2]; [8]): −11.1 | SHAQ Alternative Disability Index, Percent Change from Baseline, Mean (participants with SSc-RP [2]; [8]): −43.70 | SHAQ Alternative Disability Index, Percent Change from Baseline, Median (participants with SSc-RP [2]; [8]): −20.00 | SHAQ Alternative Disability Index, Percent Change from Baseline, Min (participants with SSc-RP [2]; [8]): −100.0, | SHAQ Alternative Disability Index, Percent Change from Baseline, Q1 (participants with SSc-RP [2]; [8]): −100.00, | SHAQ Alternative Disability Index, Percent Change from Baseline, Q3 (participants with SSc-RP [2]; [8]): −11.11
